Results as given in ChEMBL document CHEMBL4190257, “Discovery of phenylsulfonyl acetic acid derivatives with improved efficacy and safety as potent free fatty acid receptor 1 agonists for the treatment of type 2 diabetes” (Eur J Med Chem, 2017).

Experiments:
[1] = target: T1, Free fatty acid receptor 1 (Homo sapiens, UniProt O14842); assay: Agonist activity at human FFA1 receptor expressed in CHO cells assessed as increase in intracellular calcium flux by Fluo 4AM dye-based FLIPR assay; type: functional, cell-based
[2] = target: T1, Free fatty acid receptor 1; assay: Agonist activity at human FFA1 receptor expressed in CHO cells assessed as increase in intracellular calcium flux at 10 uM by Fluo 4AM dye-based FLIPR assay relative to TAK-875; type: functional, cell-based
[3] = Octanol/phosphate buffer distribution coefficient, log D of the compound at 100 uM at pH 7.4 after 24 hrs by shake flask method; type: physicochemical

T1 sequence (O14842 whole entry): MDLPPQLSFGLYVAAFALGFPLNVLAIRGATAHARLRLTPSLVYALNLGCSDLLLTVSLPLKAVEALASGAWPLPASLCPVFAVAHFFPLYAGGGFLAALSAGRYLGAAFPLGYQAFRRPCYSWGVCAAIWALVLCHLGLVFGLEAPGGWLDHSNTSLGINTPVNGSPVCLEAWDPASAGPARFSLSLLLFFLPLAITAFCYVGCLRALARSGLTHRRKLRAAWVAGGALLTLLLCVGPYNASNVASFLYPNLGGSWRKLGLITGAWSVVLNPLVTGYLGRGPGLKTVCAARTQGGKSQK

Row | EC50 [1] [nM] | Efficacy [2] [%] | logD at 24 h, 100 µM [3] | Compound
1 | 457 | 78 |  | N#Cc1ccccc1-c1cccc(COc2ccc(S(=O)(=O)CC(=O)O)cc2)c1
2 | > 1000 |  |  | COc1cc(C)c(-c2cccc(COc3ccc4c(c3)S(=O)(=O)CC4CC(=O)O)c2)c(C)c1 (stereo not drawn)
3 | 269 | 82 |  | Cc1noc(C)c1-c1cccc(COc2ccc(S(=O)(=O)CC(=O)O)cc2)c1
4 | 550 | 75 |  | Cc1nc(-c2ccccc2F)sc1COc1ccc(S(=O)(=O)CC(=O)O)cc1
5 | 126 | 95 |  | COCCOc1cc(C)c(-c2cccc(COc3ccc(S(=O)(=O)CC(=O)O)cc3)c2)c(C)c1
6 | 178 | 92 |  | CO/N=C(\COc1ccc(COc2ccc(S(=O)(=O)CC(=O)O)cc2)cc1)c1ccccc1
7 | 275 | 84 |  | Cc1nc(-c2cccc(F)c2)sc1COc1ccc(S(=O)(=O)CC(=O)O)cc1
8 | 191 | 92 |  | Cc1nc(-c2ccc(F)cc2)sc1COc1ccc(S(=O)(=O)CC(=O)O)cc1
9 | 195 | 95 | 3.82 | Cc1cccc(C)c1-c1cccc(COc2ccc(SCC(=O)O)cc2)c1
10 | > 1000 |  |  | CCC(C(=O)O)S(=O)(=O)c1ccc(OCc2cccc(-c3c(C)cc(OC)cc3C)c2)cc1 (stereo not drawn)
11 | 95.5 | 96 | 3.94 | Cc1cc(OCC(C)C)cc(C)c1-c1cccc(COc2ccc(S(=O)(=O)CC(=O)O)cc2)c1
12 | 331 | 91 |  | Cc1nc(-c2ccccc2)sc1COc1ccc(S(=O)(=O)CC(=O)O)cc1
13 | > 1000 |  |  | COc1cc(C)c(-c2cccc(COc3ccc(S(=O)(=O)C4(C(=O)O)CC4)cc3)c2)c(C)c1
14 | 123 | 98 |  | COc1cc(C)c(-c2cccc(COc3ccc4c(c3)SCC4CC(=O)O)c2)c(C)c1 (stereo not drawn)

Second part, the molecule before the results:

Row | Compound | EC50 [1] [nM] | Efficacy [2] [%] | logD at 24 h, 100 µM [3]
15 | COc1cc(C)c(-c2cccc(COc3ccc(S(=O)(=O)C(C)C(=O)O)cc3)c2)c(C)c1 (stereo not drawn) | > 1000 |  | 
16 | Cc1ccc(-c2c(C)noc2C)cc1COc1ccc(S(=O)(=O)CC(=O)O)cc1 | 427 | 73 | 
17 | Cc1cc(OCCCS(C)(=O)=O)cc(C)c1-c1cccc(COc2ccc(S(=O)(=O)CC(=O)O)cc2)c1 | 170 | 83 | 
18 | Cc1nc(-c2cccc(Cl)c2)sc1COc1ccc(S(=O)(=O)CC(=O)O)cc1 | 251 | 85 | 
19 | COc1cc(C)c(-c2cccc(COc3ccc4c(c3)C(O)CC4CC(=O)O)c2)c(C)c1 (stereo not drawn) | 550 | 83 | 
20 | Cc1noc(C)c1-c1cccc(COc2ccc(S(=O)(=O)CC(=O)O)cc2)c1C | 363 | 77 | 
21 | COc1cc(C)c(-c2cccc(COc3ccc(S(=O)(=O)C(C)(C)C(=O)O)cc3)c2)c(C)c1 | > 1000 |  | 
22 | CO/N=C1\CC(CC(=O)O)c2ccc(OCc3cccc(-c4c(C)cc(OC)cc4C)c3)cc21 (stereo not drawn) | > 1000 |  | 
23 | COc1ccccc1-c1cccc(COc2ccc(S(=O)(=O)CC(=O)O)cc2)c1 | 195 | 96 | 
24 | COc1cc(C)c(-c2cccc(COc3ccc4c(c3)C(=O)CC4CC(=O)O)c2)c(C)c1 (stereo not drawn) | 234 | 87 | 
25 | O=C(O)CS(=O)(=O)c1cccc(OCc2ccc(-c3ccccc3)cc2)c1 | > 1000 |  | 
26 | Cc1cccc(-c2nc(C)c(COc3ccc(S(=O)(=O)CC(=O)O)cc3)s2)c1 | 214 | 82 | 
27 | O=C(O)CS(=O)(=O)c1ccc(OCc2cccc(-c3ccccc3F)c2)cc1 | 257 | 97 | 
28 | Cc1ccccc1-c1ccc(COc2cccc(S(=O)(=O)CC(=O)O)c2)cc1 | > 1000 |  | 
29 | Cc1noc(C)c1-c1cc(COc2ccc(S(=O)(=O)CC(=O)O)cc2)ccc1Cl | 214 | 81 | 
30 | Cc1ccc(C)n1-c1cccc(COc2ccc(S(=O)(=O)CC(=O)O)cc2)c1 | 129 | 85 | 
31 | O=C(O)CS(=O)(=O)c1ccc(OCc2cccc(Oc3ccccc3)c2)cc1 | 97.7 | 101 | 
32 | Cc1noc(C)c1-c1ccc(Cl)c(COc2ccc(S(=O)(=O)CC(=O)O)cc2)c1 | 234 | 84 | 
